Entries after “also recorded” stand apart in the source; their conditions may differ.
Test system: BALB/c mice
Assay: OVA-induced food allergy (diarrhea) model
Format: in vivo, mouse
Protocol: BALB/c mice were intraperitoneally sensitised with OVA (50 μg/mouse) plus alum on days 0 and 14. From day 28, mice were intragastrically challenged with OVA (50 mg) three times a week (Brandt, E. B. et al. J. Clin. Invest. 112:1666-1677 (2003)). Before each challenge, mice were starved for 3 h, then pretreated intragastrically with GST or GST-N19 (100 μg), and rested for 30 min. The development of diarrhoea was visually monitored for 90 min after OVA challenge.
To evaluate the role of HRF in food allergy, an OVA-induced food allergy model developed by Brandt et al. (Brandt et al., J. Clin. Invest. 112:1666 (2003)) was employed. BALB/c mice that were 6-8-week-old were intraperitoneal (i.p.) immunized twice on days 0 and 14 with 50 μg of OVA in the presence of alum. From day 28, mice were intragastrically challenged with OVA (50 mg) three times a week. Before each challenge, mice were starved for 3 hours, then pretreated with GST or GST-N19 (100 μg/mouse) intragastrically, and rested for 30 minutes. Control mice were sensitized and challenged, but not pretreated. The development of diarrhea was monitored for ninety minutes after OVA challenge. […] Sections of jejunum and ileum from mice treated as in FIG. 14 were stained with chloroacetate esterase. […] There was a good correlation shown between the number of mucosal mast cells and the number of diarrhea occurrence during 10 OVA challenges (FIG. 15D). Increased serum IgE and IgG1, but not IgG2a, levels (FIG. 16) and increased expression of mRNAs encoding Th2 cytokines (IL-4, IL-5, IL-13) and proinflammatory cytokines (IL-6, IL-1β) in the intestines were observed (data not shown). In this Th2-skewed model, the amount of HRF in plasma from diarrhea-induced mice, as measured by immunoblotting, was increased by about 2 fold compared to PBS control mice (FIG. 16E). […] However, HRF-reactive IgE was not detected under the study conditions.

In the case of “GST-N19: GST fusion protein encoding the first 19 residues of mHRF; inhibitor of HRF/Ig interactions”, the Development of diarrhea (100 μg/mouse intragastrically before each OVA challenge, vs GST-pretreated or PBS-treated control mice) is reported as “prevented in a much greater percentage of mice; also recorded: prevents”, the “Increase in mucosal mast cells” value (jejunum and ileum sections) is reported as “inhibited” and the “Increase in serosal mast cells” value (jejunum and ileum sections) is reported as “inhibited”. For the same substance, the “Mastocytosis in the small intestine” value (mouse, in vivo) was “inhibits”, the “Plasma level of HRF-reactive IgG” value (mouse, in vivo) was “not affected” and the “Plasma level of total IgE” value (mouse, in vivo) was “not affected”. The “Plasma level of total IgG1” value (mouse, in vivo) was “not affected” and the “Plasma level of total IgG2a” value (mouse, in vivo) was “not affected”.
